Like-named read-outs stand apart in the source and are kept apart here.
Key:
[1] = Pharmacokinetic evaluation in beagles; type: in vivo; conditions: for AUC / half-life / Cmax / MRT / Vd/F / CL/F: both (Example 16), male (MYK-461), beagle, dog, plasma; for AUC: read-out: Area under curve AUC; for half-life: read-out: Half-life T1/2 (converted); for Cmax: read-out: Plasma concentration Cmax; for MRT: read-out: Residence time MRT; for Vd/F: read-out: Apparent volume of distribution Vz/F; for CL/F: read-out: Clearance CL/F
Description: With beagles as test animals, the plasma concentrations of the test compounds were measured by LC/MS/MS at different time points after intragastric administration and intravenous injection. The pharmacokinetic performance of the compound disclosed herein was studied in beagles and its pharmacokinetic profile was evaluated.
Pharmacokinetics of the compound of Example 16 in beagles: 8 beagles, an equal number of males and females, divided into 2 groups of 4, provided by Shanghai Medicilon Inc. Pharmacokinetics of compound MYK-461 in beagles: 6 beagles, male, divided into 2 groups of 3, provided by Shanghai Medicilon Inc.
A certain amount of the compound of Example 16 was measured out, and 5% DMSO, 30% PG, 30% PEG400 and 35% normal saline were added to prepare a clear solution.
A certain amount of compound MYK-461 was measured out, and 5% DMSO, 20% PG, 20% PEG400 and 55% normal saline were added to prepare a clear solution.
Beagles were fasted overnight and then given compounds by intragastric administration and intravenous injection at doses of 2 mg/kg and 0.5 mg/kg, respectively, and at volumes of 5 mL/kg and 2 mL/kg, respectively.
1.0-mL blood samples were collected from the jugular veins or forelimb veins of the animals in the intragastric administration group before administration and 0.25 h, 0.5 h, 1.0 h, 2.0 h, 4.0 h, 6.0 h, 8.0 h, 12.0 h and 24.0 h after administration, placed into EDTA-K2 anticoagulant tubes, and centrifuged at 10,000 rpm for 5 min (4° C.), and plasma was isolated within 1 h and stored at −80° C. before analysis. The blood collection to centrifugation process was performed under ice bath conditions. Three hours after administration, feeding was resumed.
Blood samples were collected from the animals in the intravenous injection group before administration and 5 min, 0.25 h, 0.5 h, 1.0 h, 2.0 h, 4.0 h, 8.0 h, 12.0 h and 24.0 h after administration and processed as in the intragastric administration group.
Determination of plasma concentrations in beagles after intragastric administration and intravenous injection of different concentrations of test compounds: 30 μL of beagle plasma at each time point post-dose was mixed with an internal standard solution (internal standard for the compound of Example 16: 100 ng/mL warfarin; internal standard for compound MYK-461: 100 ng/mL tolbutamide) and 300 μL of methanol; the mixture was vortexed for 1 min and centrifuged at 18,000 g for 7 min, and 200 μL of the supernatant was transferred to a 96-well plate; 1 μL of the supernatant was taken for LC/MS/MS analysis.

[2] = Identification of reactive metabolites (GSH conjugates) in human liver microsomes; type: in vitro ADME; conditions: for Identification of reactive metabolites: Result: human liver microsomes 1 mg/mL, test compound 30 μM, GSH 5 mM, NADPH 1.0 mM, 60 min, 37° C.; for glutathione (GSH) conjugate associated with the compound detected (in words): human liver microsomes, GSH trapping
Description: The identification of reactive metabolites of the compound disclosed herein in human liver microsomes was carried out using the experimental method below:
• 1. Phosphate-buffered saline (purchased from Shanghai Sangon) • 2. NADPH (ACROS, A2646-71-1) • 3. Human liver microsome (Corning Gentest, Cat No. 452161, Lot No. 905002) • 4. Thermo UHPLC-Q-Exactive Orbitrap mass spectrometer (Thermo Fisher Scientific) • 5. Acquity BEH C18 column, 2.1×100 mm, 1.7 μm (Waters, USA) • 6. Positive control compound (diclofenac).
• 1. Preparation of test compound solutions: A proper amount of a test compound was precisely measured out and dissolved in a proper amount of DMSO. After the solution was well mixed, a 30 mM stock solution was obtained. A […] stock solution was 10-fold diluted with 50% acetonitrile/water (v/v) to obtain a 3.0 mM working solution 1. The 3.0 mM working solution 1 was 10-fold diluted with PBS to obtain a 300 μM working solution 2, and the solution was stored at 4° C. before use. • 2. Preparation of phosphate-buffered saline: Proper amounts of K2HPO4 and KH2PO4 were measured out and dissolved in 4 L of pure water to prepare a 100 mM buffer, and the pH was then adjusted with phosphoric acid or sodium hydroxide to 7.4. • 3. Preparation of liver microsome solutions: Proper amounts of liver microsome stock solutions of various species (20 mg/mL) were measured out and diluted with the 100 mM phosphate-buffered saline (pH 7.4) to prepare 1.43 mg/mL microsome solutions. • 4. Preparation of NADPH cofactor solution: Proper amounts of NADPH and magnesium chloride were measured out and dissolved in a proper amount of the 100 mM phosphate-buffered saline (pH 7.4) so the concentrations of NADPH and magnesium chloride were 10 mM and 30 mM, respectively, and the solutions were stored for later use. • 5. Preparation of glutathione (GSH) solution: A proper amount of glutathione was measured out and dissolved in a proper amount of the 100 mM phosphate-buffered saline (pH 7.4) so the concentration of GSH was 50 mM, and the solution was stored for later use. • 6. The incubation system is shown below:
To a 1.5 mL centrifuge tube, 20 μL of the 300 μM working solution 2 was precisely transferred and 140 μL of a 1.43 mg/mL liver microsome solution was then added so the concentration of liver microsomal protein in the incubation system was 1 mg/mL. […] The collected data were processed and analyzed using Xcalibur software. According to the exact molecular weight, tandem mass spectrometry fragments were analyzed to see if the compound disclosed herein would be metabolically activated to produce reactive metabolites.

[3] = intravenous injection, 0.5 mg/kg
[4] = po, intragastric administration, 2 mg/kg

## Cc1ccc(F)c([C@H](C)Nc2nc(=O)n(C3CCOCC3)c(=O)[nH]2)c1 [Example 16, (S)-6-((1-(2-Fluoro-5-methylphenyl)ethyl)amino)-3-(tetrahydro-2H-pyran-4-yl)-1,3,5-triazine-2,4(1H,3H)-dione]
[1]
  T1/2 comparison (in words): significantly shorter T1/2
  absorption profile (in words): good absorption profile
[1]; [3]
  AUC: 716 ng·h/mL
  half-life: 5.6 h
  Cmax: 1080 ng/mL
  MRT: 7.5 h
  Apparent volume of distribution Vz/F: 5.022 L/kg
  Clearance CL/F: 10.4 mL/min/kg
[1]; [4]
  Vd/F: 6.05 L/kg
  AUC: 3100 ng·h/mL
  CL/F: 9.26 mL/min/kg
  half-life: 7.5 h
  Cmax: 1540 ng/mL
  MRT: 9.5 h
[2]
  Identification of reactive metabolites: Result: Negative
  glutathione (GSH) conjugate associated with the compound detected (in words): no glutathione (GSH) conjugate

## CC(C)n1c(=O)cc(N[C@@H](C)c2ccccc2)[nH]c1=O [MYK-461, reference compound]
[1]
  T1/2 comparison (in words): longer T1/2
[1]; [3]
  AUC: 1380 ng·h/mL
  half-life: 47.2 h
  Cmax: 215 ng/mL
  MRT: 72.2 h
  Apparent volume of distribution Vz/F: 6.308 L/kg
  Clearance CL/F: 1.63 mL/min/kg
[1]; [4]
  Vd/F: 3.9 L/kg
  AUC: 8720 ng·h/mL
  CL/F: 1.48 mL/min/kg
  half-life: 38.9 h
  Cmax: 1440 ng/mL
  MRT: 59.2 h
[2]
  Identification of reactive metabolites: Result: Positive
  glutathione (GSH) conjugate associated with the compound detected (in words): detected

From patent US20240010639A1, “TRIAZINE DIONE DERIVATIVE, PREPARATION METHOD THEREFOR AND APPLICATION THEREOF IN MEDICINE” (Jiangsu Hengrui Pharmaceuticals Co., Ltd., priority 2020, published 2024)
